Data published in PubChem BioAssay AID328 (DTP/NCI, 2004).
Values joined by “and” are separate entries in the source; they are usually repeats but may differ in a detail not shown here. Equal entries are not always repeated. Inconclusive results and toxic doses are left out. The calls were made as follows: active = survival T/C of 150% or more; inactive = T/C below 125% in these data.

System: BDF1 mice, P388 leukemia ip, median survival T/C
Assay: NCI In Vivo Anticancer Drug Screen. Data for tumor model P388 Leukemia (intraperitoneal) in B6D2F1 (BDF1) mice
Settings: endpoint: median survival time, higher = longer survival
Summary of the method: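 Reported as T/C, where T is the survival measurement in dosed animals and C the same measurement in vehicle controls.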

[1] = dose: 100.0 mg/kg/injection, schedule: Q01DX001 (ip), vehicle: saline with Tween-80
[2] = dose: 200.0 mg/kg/injection, schedule: Q01DX001 (ip), vehicle: saline with Tween-80
[3] = dose: 100.0 mg/kg/injection, schedule: Q04DX003 (ip), vehicle: saline with Tween-80
[4] = dose: 200.0 mg/kg/injection, schedule: Q04DX003 (ip), vehicle: saline with Tween-80
[5] = dose: 400.0 mg/kg/injection, schedule: Q04DX003 (ip), vehicle: saline with Tween-80
[6] = dose: 50.0 mg/kg/injection, schedule: Q01DX009 (ip), vehicle: saline with Tween-80
[7] = dose: 100.0 mg/kg/injection, schedule: Q01DX009 (ip), vehicle: saline with Tween-80
[8] = dose: 200.0 mg/kg/injection, schedule: Q01DX009 (ip), vehicle: saline with Tween-80
[9] = dose: 100.0 mg/kg/injection, schedule: Q01DX001 (ip), vehicle: saline sonified
[10] = dose: 50.0 mg/kg/injection, schedule: Q04DX003 (ip), vehicle: saline
[11] = dose: 100.0 mg/kg/injection, schedule: Q04DX003 (ip), vehicle: saline
[12] = dose: 12.5 mg/kg/injection, schedule: Q01DX009 (ip), vehicle: saline with Tween-80
[13] = dose: 25.0 mg/kg/injection, schedule: Q01DX009 (ip), vehicle: saline with Tween-80

Measured: T/C

CC(C)CNC(c1ccc2c(c1)OCO2)C(O)c1ccc2c(c1)OCO2 (configuration not stated)
inactive: [1] 100 % of control | [2] 115 % of control | dose: 400.0 mg/kg/injection, schedule: Q01DX001 (ip), vehicle: saline with Tween-80 108 % of control

C(=Nc1ccc(-c2ccccc2)cc1)c1ccccc1
inactive: [3] 100 % of control | [4] 100 % of control | [5] 100 % of control

CCCC(=O)Oc1ccc2c(C)cc(=O)oc2c1
inactive: [3] 104 % of control | [4] 90 % of control | [5] 100 % of control

ClC(CN1CCCCC1)C(Cl)c1ccccc1 (configuration not stated)
inactive: dose: 50.0 mg/kg/injection, schedule: Q04DX003 (ip), vehicle: saline sonified 108 % of control | dose: 100.0 mg/kg/injection, schedule: Q04DX003 (ip), vehicle: saline sonified 112 % of control | dose: 200.0 mg/kg/injection, schedule: Q04DX003 (ip), vehicle: saline sonified 104 % of control

CN(C)c1ccc(C=C2C(=O)CC(C)(C)CC2=O)cc1
inactive: [6] 105 % of control | [7] 95 % of control | [8] 97 % of control

CNC1=CC(=O)C1(F)F
inactive: dose: 25.0 mg/kg/injection, schedule: Q01DX001 (ip), vehicle: saline sonified 100 % of control | dose: 50.0 mg/kg/injection, schedule: Q01DX001 (ip), vehicle: saline sonified 109 % of control | [9] 100 % of control

Nc1nc(N)c2nc(Sc3ccc(Cl)cc3)c(-c3ccccc3)nc2n1
inactive: [3] 88 % of control | [5] 99 % of control

Cc1ncc2c[n+]([O-])ccn12
inactive: [10] 100 % of control | [11] 100 % of control | dose: 200.0 mg/kg/injection, schedule: Q04DX003 (ip), vehicle: saline 90 % of control

CC1(C)COC(c2ccccc2)=N1
inactive: [9] 100 % of control | dose: 200.0 mg/kg/injection, schedule: Q01DX001 (ip), vehicle: saline sonified 100 % of control | dose: 400.0 mg/kg/injection, schedule: Q01DX001 (ip), vehicle: saline sonified 110 % of control

CCCCCCCCCCCCCCCC[N+](C)(C)c1ccccc1
inactive: dose: 1.56 mg/kg/injection, schedule: Q04DX003 (ip), vehicle: saline with Tween-80 110 % of control | dose: 3.13 mg/kg/injection, schedule: Q04DX003 (ip), vehicle: saline with Tween-80 115 % of control | dose: 25.0 mg/kg/injection, schedule: Q04DX003 (ip), vehicle: saline with Tween-80 108 % of control

CCC(=O)c1ccc(OCC(O)CN2CCN(c3ccccc3OC)CC2)cc1 (configuration not stated)
inactive: [3] 104 % of control | [4] 104 % of control | [5] 119 % of control

O=C(c1ccccc1)N1C=CN(C(=O)c2ccccc2)C1c1ncc[nH]1
inactive: [6] 105 % of control | [7] 105 % of control | [8] 106 % of control

CNS(=O)(=O)c1ccc2c(c1)[nH]c(=S)n2C
inactive: [3] 95 % of control | [4] 109 % of control | [5] 100 % of control

O=C(/C=C/c1ccccc1)N1CCOCC1
inactive: [10] 95 % of control | [11] 95 % of control

Cc1ccc(N2CCNCC2)cc1
inactive: dose: 6.25 mg/kg/injection, schedule: Q04DX003 (ip), vehicle: saline sonified 95 % of control | dose: 12.5 mg/kg/injection, schedule: Q04DX003 (ip), vehicle: saline sonified 100 % of control | dose: 25.0 mg/kg/injection, schedule: Q04DX003 (ip), vehicle: saline sonified 100 % of control

BrC1CC(Br)c2c1c1c(c3c2C(Br)CC3Br)C(Br)CC1Br (configuration not stated)
inactive: [8] 90 % of control

CC(=O)OCc1c(COC(C)=O)c(-c2ccc(Cl)cc2)n2c1CCC2
inactive: dose: 12.5 mg/kg/injection, schedule: Q01DX009 (ip), vehicle: Klucel (hydroxypropylcellulose) (HPC) 119 % of control | dose: 25.0 mg/kg/injection, schedule: Q01DX009 (ip), vehicle: Klucel (hydroxypropylcellulose) (HPC) 123 % of control | dose: 50.0 mg/kg/injection, schedule: Q01DX009 (ip), vehicle: Klucel (hydroxypropylcellulose) (HPC) 98 % of control

Cc1ccc(S(=O)(=O)OCC(C)(C)NC(=O)c2ccc([N+](=O)[O-])cc2)cc1
inactive: dose: 50.0 mg/kg/injection, schedule: Q01DX001 (ip), vehicle: saline with Tween-80 100 % of control | [1] 105 % of control | [2] 110 % of control

CCCCCCCCCCCCCCCC(=O)N(c1ccc(NC(=O)Nc2ccc(N(C(=O)CCCCCCCCCCCCCCC)C(C)CCCN(CC)CC)cc2)cc1)C(C)CCCN(CC)CC (configuration not stated)
inactive: [12] 94 % of control | [13] 87 % of control | [6] 97 % of control | [3] 93 % of control | [4] 99 % of control | [5] 102 % of control

Nc1ncccc1C(=O)O
inactive: dose: 62.5 mg/kg/injection, schedule: Q01DX010 (ip), vehicle: saline 90 % of control | dose: 125.0 mg/kg/injection, schedule: Q01DX010 (ip), vehicle: saline 100 % of control | dose: 250.0 mg/kg/injection, schedule: Q01DX010 (ip), vehicle: carboxymethylcellulose (CMC) 113 % of control | dose: 500.0 mg/kg/injection, schedule: Q01DX010 (ip), vehicle: carboxymethylcellulose (CMC) 100 % of control

CC1(C)CCc2c(ccc(C(=O)/C=C\c3ccccc3)c2O)O1
inactive: dose: 1.25 mg/kg/injection, schedule: Q01DX009 (ip), vehicle: Klucel (hydroxypropylcellulose) (HPC) 109 % of control | dose: 2.5 mg/kg/injection, schedule: Q01DX009 (ip), vehicle: Klucel (hydroxypropylcellulose) (HPC) 107 % of control | dose: 5.0 mg/kg/injection, schedule: Q01DX009 (ip), vehicle: Klucel (hydroxypropylcellulose) (HPC) 102 % of control | dose: 10.0 mg/kg/injection, schedule: Q01DX009 (ip), vehicle: Klucel (hydroxypropylcellulose) (HPC) 107 % of control | dose: 20.0 mg/kg/injection, schedule: Q01DX009 (ip), vehicle: Klucel (hydroxypropylcellulose) (HPC) 100 % of control | dose: 40.0 mg/kg/injection, schedule: Q01DX009 (ip), vehicle: Klucel (hydroxypropylcellulose) (HPC) 91 % of control

COC(=O)C(CSCSC)NC(=O)/C=C\c1ccccc1 (configuration not stated)
inactive: [6] 100 % of control | [7] 104 % of control | [3] 95 % of control | [8] 109 % of control | [4] 91 % of control | dose: 400.0 mg/kg/injection, schedule: Q01DX009 (ip), vehicle: saline with Tween-80 90 % of control

CC(=O)C(O)c1c(O)cc(C)[nH]c1=O (configuration not stated)
inactive: [6] 100 % of control | [7] 97 % of control | [8] 98 % of control

CCCCn1c2nc(=O)[nH]c(=O)c-2[n+]([O-])c2ccccc21
inactive: [1] 108 % of control

CC12CCC(c3sc(N)c(C#N)c31)C2(C)C (configuration not stated)
inactive: dose: 1.56 mg/kg/injection, schedule: Q01DX009 (ip), vehicle: saline with Tween-80 88 % of control | dose: 3.13 mg/kg/injection, schedule: Q01DX009 (ip), vehicle: saline with Tween-80 102 % of control | dose: 6.25 mg/kg/injection, schedule: Q01DX009 (ip), vehicle: saline with Tween-80 104 % of control | [12] 104 % of control and 121 % of control | [13] 104 % of control | [6] 118 % of control

COS(C)(=O)=O
inactive: dose: 12.5 mg/kg/injection, schedule: Q01DX010 (ip), vehicle: saline 100 % of control | dose: 25.0 mg/kg/injection, schedule: Q01DX010 (ip), vehicle: saline 104 % of control | dose: 50.0 mg/kg/injection, schedule: Q01DX010 (ip), vehicle: saline 108 % of control

CCCCCCCCCOCC1CO1 (configuration not stated)
inactive: [6] 111 % of control | [7] 110 % of control | [8] 101 % of control

COc1ccc(C(C)c2ccccc2)cc1 (configuration not stated)
inactive: [3] 110 % of control | [4] 105 % of control | [5] 100 % of control

Cc1ccc(C2(C(=O)O)CC2)cc1
inactive: [3] 100 % of control | [4] 104 % of control | [5] 108 % of control

COc1cccc(C2NC(=O)c3c(n[nH]c3N)S2)c1O (configuration not stated)
inactive: [6] 103 % of control | [7] 99 % of control | [8] 103 % of control
